pIC50: −log10 of the molar value.
These compounds were tested against T1, MAGL protein (Homo sapiens, UniProt Q99685) (assay: 2-AG assay: MAGL inhibitory activity by hydrolysis of 2-arachidonoylglycerol to arachidonic acid, followed by mass spectrometry). Conditions: 8 μM 2-arachidonoylglycerol, 15 min preincubation, 30 min reaction at RT, RapidFire MS readout.
T1 sequence (Q99685 1-303): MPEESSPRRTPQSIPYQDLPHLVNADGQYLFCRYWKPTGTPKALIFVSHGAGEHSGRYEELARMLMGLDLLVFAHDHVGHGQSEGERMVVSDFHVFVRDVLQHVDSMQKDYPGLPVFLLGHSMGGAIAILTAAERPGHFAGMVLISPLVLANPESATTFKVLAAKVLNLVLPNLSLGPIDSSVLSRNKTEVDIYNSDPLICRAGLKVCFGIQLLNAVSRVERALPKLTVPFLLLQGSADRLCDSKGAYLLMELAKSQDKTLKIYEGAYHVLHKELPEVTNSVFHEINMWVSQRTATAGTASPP
Format: biochemical
Method in brief: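 Activity was measured by RapidFire SPE–triple-quad MS as the ratio of arachidonic acid to d8-arachidonic acid after 2-AG hydrolysis (8 μM substrate, 30 min, RT, acetonitrile quench). Compounds, tested from 12.5 μM down to […], were first preincubated 15 min with MAGL in TRIS/EDTA/Tween-20 buffer containing 2.5% DMSO.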

| pIC50 | SMILES |
| --- | --- |
| 6.62 | CS(=O)(=O)c1cc(C(F)(F)F)ccc1OCC1CCN(C(=O)N2CC3(CC(c4nc(C5CC5)n[nH]4)C3)C2)CC1 [Example 915, [6-(3-cyclopropyl-1H-1,2,4-triazol-5-yl)-2-azaspiro[3.3]heptan-2-yl]-[4-[[2-mesyl-4-(trifluoromethyl)phenoxy]methyl]piperidino]methanone] |
| 7.40 | O=C(N1CCC(COc2ccc(F)c(C(F)(F)F)c2)CC1)N1CC2(CC(c3nc(C4(O)CC4)n[nH]3)C2)C1 [Example 916, [4-[[4-fluoro-3-(trifluoromethyl)phenoxy]methyl]piperidino]-[6-[3-(1-hydroxycyclopropyl)-1H-1,2,4-triazol-5-yl]-2-azaspiro[3.3]heptan-2-yl]methanone] |
| 6.62 | CS(=O)(=O)c1cc(OC(F)(F)F)ccc1OCC1CCN(C(=O)N2CC3(CC(c4nnc(C5CC5)[nH]4)C3)C2)CC1 [Example 917, [6-(5-cyclopropyl-4H-1,2,4-triazol-3-yl)-2-azaspiro[3.3]heptan-2-yl]-[4-[[2-mesyl-4-(trifluoromethoxy)phenoxy]methyl]piperidino]methanone] |
| 6.02 | CS(=O)(=O)c1ccc(COC2CCN(C(=O)N3CC4(CC(c5nc(C6(O)CC6)n[nH]5)C4)C3)CC2)c(Cl)c1 [Example 918, [4-(2-chloro-4-mesyl-benzyl)oxypiperidino]-[6-[3-(1-hydroxycyclopropyl)-1H-1,2,4-triazol-5-yl]-2-azaspiro[3.3]heptan-2-yl]methanone] |
| 5.92 | CS(=O)(=O)c1cc(C(F)(F)F)ccc1OCC1CCN(C(=O)N2CC3(CC(c4nc(C5(O)CC5)n[nH]4)C3)C2)CC1 [Example 919, [6-[3-(1-hydroxycyclopropyl)-1H-1,2,4-triazol-5-yl]-2-azaspiro[3.3]heptan-2-yl]-[4-[[2-mesyl-4-(trifluoromethyl)phenoxy]methyl]piperidino]methanone] |
| 7.50 | O=C(N1CCC(COc2cc(F)cc(C(F)(F)F)c2)CC1)N1CC2(CC(c3nc(C4(O)CC4)n[nH]3)C2)C1 [Example 921, [4-[[3-fluoro-5-(trifluoromethyl)phenoxy]methyl]piperidino]-[6-[3-(1-hydroxycyclopropyl)-1H-1,2,4-triazol-5-yl]-2-azaspiro[3.3]heptan-2-yl]methanone] |
| 6.49 | CS(=O)(=O)c1ccc(OCC2CCN(C(=O)N3CC4(CC(c5nc(C6(O)CC6)n[nH]5)C4)C3)CC2)cc1C(F)(F)F [Example 922] |
| 6.14 | CS(=O)(=O)c1cc(OC(F)(F)F)ccc1OCC1CCN(C(=O)N2CC3(CC(c4nc(C5(O)CC5)n[nH]4)C3)C2)CC1 [Example 923] |
| 7.31 | CS(=O)(=O)c1ccc(OCC2CCN(C(=O)N3CC4(CC(c5n[nH]c(C6CC6)n5)C4)C3)CC2)cc1C(F)(F)F [Example 924, [6-(5-cyclopropyl-1H-1,2,4-triazol-3-yl)-2-azaspiro[3.3]heptan-2-yl]-[4-[[4-mesyl-3-(trifluoromethyl)phenoxy]methyl]piperidino]methanone] |
| 7.10 | CS(=O)(=O)c1ccc(COC2CCN(C(=O)N3CC4(CC(c5n[nH]c(C6CC6)n5)C4)C3)CC2)c(Cl)c1 [Example 925, [4-(2-chloro-4-mesyl-benzyl)oxypiperidino]-[6-(5-cyclopropyl-1H-1,2,4-triazol-3-yl)-2-azaspiro[3.3]heptan-2-yl]methanone] |
| 8.63 | NC1(c2nnc(C3CC4(C3)CN(C(=O)N3CC5(CC(Cc6ccc(C(F)(F)F)cn6)C5)C3)C4)[nH]2)CC1 [Example 948, [6-[5-(1-aminocyclopropyl)-4H-1,2,4-triazol-3-yl]-2-azaspiro[3.3]heptan-2-yl]-[6-[[5-(trifluoromethyl)-2-pyridyl]methyl]-2-azaspiro[3.3]heptan-2-yl]methanone] |
| 7.64 | O=C(N1CC2(CCN(Cc3cc(C(F)(F)F)no3)CC2)C1)N1CC2(CC(c3nc(C4CC4)n[nH]3)C2)C1 [Example 955, [6-(3-cyclopropyl-1H-1,2,4-triazol-5-yl)-2-azaspiro[3.3]heptan-2-yl]-[7-[[3-(trifluoromethyl)isoxazol-5-yl]methyl]-2,7-diazaspiro[3.5]nonan-2-yl]methanone] |
| 6.82 | Cn1c(CN2CC3(C2)CN(C(=O)N2CC4(CC(c5nc(C6CC6)n[nH]5)C4)C2)C3)nnc1C(F)(F)F [Example 958, [6-(3-cyclopropyl-1H-1,2,4-triazol-5-yl)-2-azaspiro[3.3]heptan-2-yl]-[6-[[4-methyl-5-(trifluoromethyl)-1,2,4-triazol-3-yl]methyl]-2,6-diazaspiro[3.3]heptan-2-yl]methanone] |
| 5.53 | O=C(c1cccc(F)c1)N1CCN(C(=O)N2CC3(CC(c4nnc(C5CC5)[nH]4)C3)C2)CC1 [Example 979, [4-[6-(5-cyclopropyl-4H-1,2,4-triazol-3-yl)-2-azaspiro[3.3]heptane-2-carbonyl]piperazino]-(3-fluorophenyl)methanone] |
| 5.60 | COc1cc(COC2CCN(C(=O)N3CC4(CC(c5nc(C6CC6)n[nH]5)C4)C3)CC2)ccc1C(N)=O [Example 980, 4-[[1-[6-(3-cyclopropyl-1H-1,2,4-triazol-5-yl)-2-azaspiro[3.3]heptane-2-carbonyl]-4-piperidyl]oxymethyl]-2-methoxy-benzamide] |
| 9.72 | N=S(=O)(c1ccc(CC2CC3(C2)CN(C(=O)N2CC4(CC(c5nc(C6CC6)n[nH]5)C4)C2)C3)cc1)C(F)(F)F (stereo not shown) [compound 2] |
| 8.31 | O=C(N1CC2(CC(Cc3cnc(C(F)(F)F)cn3)C2)C1)N1CC2(CC(c3nc(C4(O)CC4)n[nH]3)C2)C1 [compound 4] |
| 9.80 | O=C(N1CC2(CC(Cc3ccc(C(F)(F)F)nc3)C2)C1)N1CC2(CC(c3nnc(C4CC4)[nH]3)C2)C1 [compound 5] |
| 8.94 | O=C(N1CC2(CC(Cc3ccc(C(F)(F)F)nc3)C2)C1)N1CC2(CC(c3nnc(C4(O)CC4)[nH]3)C2)C1 [compound 6] |
| 8.44 | O=C(N1CC2(CC(Cc3ccc(C(F)(F)F)nc3)C2)C1)N1CC2(CC(c3nnc(C4CCC4)[nH]3)C2)C1 [compound 7] |
| 9.89 | O=C(N1CC2(CC(Cc3ccc(OC(F)(F)F)cn3)C2)C1)N1CC2(CC(c3nnc(C4CC4)[nH]3)C2)C1 [compound 8] |
| 9.24 | O=C(N1CC2(CC(Cc3ccc(OC(F)(F)F)cn3)C2)C1)N1CC2(CC(c3nnc(C4(O)CC4)[nH]3)C2)C1 [compound 9] |

| pIC50 | SMILES |
| --- | --- |
| 9.09 | CS(=O)(=O)c1ccc(CC2CC3(C2)CN(C(=O)N2CC4(CC(c5nnc(C6CC6)[nH]5)C4)C2)C3)cc1 [compound 12] |
| 8.33 | CS(=O)(=O)c1ccc(CC2CC3(C2)CN(C(=O)N2CC4(CC(c5nnc(C6(O)CC6)[nH]5)C4)C2)C3)cc1 [compound 13] |
| 7.83 | CS(=O)(=O)c1ccc(CC2CC3(C2)CN(C(=O)N2CC4(CC(c5nnc(C6CCC6)[nH]5)C4)C2)C3)cc1 [compound 14] |
| 8.88 | CS(=O)(=O)c1cccc(CC2CC3(C2)CN(C(=O)N2CC4(CC(c5nnc(C6CC6)[nH]5)C4)C2)C3)c1 [compound 15] |
| 8.82 | CS(=O)(=O)c1cccc(CC2CC3(C2)CN(C(=O)N2CC4(CC(c5nnc(C6(O)CC6)[nH]5)C4)C2)C3)c1 [compound 16] |
| 7.82 | CS(=O)(=O)c1cccc(CC2CC3(C2)CN(C(=O)N2CC4(CC(c5nnc(C6CCC6)[nH]5)C4)C2)C3)c1 [compound 17] |
| 9.52 | CS(=O)(=O)c1cc(F)cc(CC2CC3(C2)CN(C(=O)N2CC4(CC(c5nnc(C6CC6)[nH]5)C4)C2)C3)c1 [compound 18] |
| 8.32 | CS(=O)(=O)c1cc(F)cc(CC2CC3(C2)CN(C(=O)N2CC4(CC(c5nnc(C6(O)CC6)[nH]5)C4)C2)C3)c1 [compound 19] |
| 9.13 | O=C(N1CC2(CC(Cc3cnc(C(F)(F)F)nc3)C2)C1)N1CC2(CC(c3nnc(C4CC4)[nH]3)C2)C1 [compound 20] |
| 8.27 | O=C(N1CC2(CC(Cc3cnc(C(F)(F)F)nc3)C2)C1)N1CC2(CC(c3nnc(C4(O)CC4)[nH]3)C2)C1 [compound 21] |
| 9.10 | O=C(N1CC2(CC(Cc3ccc(C(F)(F)F)nn3)C2)C1)N1CC2(CC(c3nnc(C4CC4)[nH]3)C2)C1 [compound 22] |
| 8.35 | O=C(N1CC2(CC(Cc3ccc(C(F)(F)F)nn3)C2)C1)N1CC2(CC(c3nnc(C4(O)CC4)[nH]3)C2)C1 [compound 23] |
| 9.15 | CS(=O)(=O)c1cc(F)ccc1CC1CC2(C1)CN(C(=O)N1CC3(CC(c4nnc(C5CC5)[nH]4)C3)C1)C2 [compound 24] |
| 8.35 | CS(=O)(=O)c1cc(F)ccc1CC1CC2(C1)CN(C(=O)N1CC3(CC(c4nnc(C5CCC5)[nH]4)C3)C1)C2 [compound 25] |
| 10.70 | N#Cc1cc(CC2CC3(C2)CN(C(=O)N2CC4(CC(c5nnc(C6CC6)[nH]5)C4)C2)C3)ccc1C(F)(F)F [compound 26] |
| 9.96 | N#Cc1cc(CC2CC3(C2)CN(C(=O)N2CC4(CC(c5nnc(C6(O)CC6)[nH]5)C4)C2)C3)ccc1C(F)(F)F [compound 27] |
| 9.03 | O=C(N1CC2(CC(Cc3ncc(C(F)(F)F)cn3)C2)C1)N1CC2(CC(c3nnc(C4CC4)[nH]3)C2)C1 [compound 28] |
| 11.00 | O=C(N1CC2(CC(Cc3ccc(F)cc3C(F)(F)F)C2)C1)N1CC2(CC(c3nnc(C4CC4)[nH]3)C2)C1 [compound 33] |
| 11.00 | O=C(N1CC2(CC(Cc3ccc(F)cc3C(F)(F)F)C2)C1)N1CC2(CC(c3nnc(C4(O)CC4)[nH]3)C2)C1 [compound 34] |
| 10.15 | O=C(N1CC2(CC(Cc3ccc(F)cc3F)C2)C1)N1CC2(CC(c3nnc(C4CC4)[nH]3)C2)C1 [compound 35] |
| 10.30 | O=C(N1CC2(CC(Cc3ccc(F)cc3F)C2)C1)N1CC2(CC(c3nnc(C4(O)CC4)[nH]3)C2)C1 [compound 36] |

Source: patent US20250099448A1, “HETEROCYCLIC COMPOUNDS” (Hoffmann-La Roche Inc., priority 2022, published 2025)
